Tests used:
Rhesus PDE2A3 = Rhesus PDE2A3 (Macaca mulatta, UniProt B3VTJ2); assay: PDE2 fluorescence polarization (IMAP FP) assay, rhesus PDE2A3; type: biochemical, rhesus macaque; conditions: Lab B, read-out: Rhesus PDE2 Ki (nM) Lab B
human PDE2A1 = human PDE2A1 (Homo sapiens (Human), UniProt O00408); assay: PDE selectivity IMAP FP assay, human PDE2A1; type: biochemical; conditions: Human PDE2; Lab B; read-out: Human PDE2 Ki (nM) Lab B
How it was run: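 Compound titrations run against PDE2 in Tris HCl pH 7.2 buffer with MgCl2 and DTT for 60 min at room temperature, using 50 nM FAM-cAMP plus 1000 nM cGMP and enzyme giving 20% conversion.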

Sequence of human PDE2A1 (O00408 other isoform, or with tags, fused parts or gaps): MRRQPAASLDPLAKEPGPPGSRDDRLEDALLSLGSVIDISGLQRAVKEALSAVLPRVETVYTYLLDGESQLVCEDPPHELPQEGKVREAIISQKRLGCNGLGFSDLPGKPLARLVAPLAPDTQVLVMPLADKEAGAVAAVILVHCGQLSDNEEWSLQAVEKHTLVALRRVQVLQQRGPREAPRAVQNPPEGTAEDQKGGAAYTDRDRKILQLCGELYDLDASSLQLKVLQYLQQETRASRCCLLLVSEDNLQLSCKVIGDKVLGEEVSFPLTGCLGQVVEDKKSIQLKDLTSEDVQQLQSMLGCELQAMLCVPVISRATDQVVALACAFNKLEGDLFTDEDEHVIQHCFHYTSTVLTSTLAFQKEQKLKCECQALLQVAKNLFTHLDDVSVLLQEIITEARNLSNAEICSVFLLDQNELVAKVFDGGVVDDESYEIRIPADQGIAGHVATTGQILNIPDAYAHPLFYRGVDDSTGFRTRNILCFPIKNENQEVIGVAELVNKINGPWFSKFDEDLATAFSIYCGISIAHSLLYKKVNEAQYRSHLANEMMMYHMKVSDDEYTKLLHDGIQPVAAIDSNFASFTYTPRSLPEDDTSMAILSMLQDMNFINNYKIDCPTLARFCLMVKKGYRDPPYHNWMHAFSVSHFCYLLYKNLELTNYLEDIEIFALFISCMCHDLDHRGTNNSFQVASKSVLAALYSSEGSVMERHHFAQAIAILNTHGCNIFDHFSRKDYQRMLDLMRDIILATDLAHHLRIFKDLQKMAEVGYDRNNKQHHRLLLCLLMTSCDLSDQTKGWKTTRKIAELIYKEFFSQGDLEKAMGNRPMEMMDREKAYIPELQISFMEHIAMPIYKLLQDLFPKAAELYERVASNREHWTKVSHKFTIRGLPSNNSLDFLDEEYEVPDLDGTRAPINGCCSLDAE
Sequence of Rhesus PDE2A3 (B3VTJ2 1-941): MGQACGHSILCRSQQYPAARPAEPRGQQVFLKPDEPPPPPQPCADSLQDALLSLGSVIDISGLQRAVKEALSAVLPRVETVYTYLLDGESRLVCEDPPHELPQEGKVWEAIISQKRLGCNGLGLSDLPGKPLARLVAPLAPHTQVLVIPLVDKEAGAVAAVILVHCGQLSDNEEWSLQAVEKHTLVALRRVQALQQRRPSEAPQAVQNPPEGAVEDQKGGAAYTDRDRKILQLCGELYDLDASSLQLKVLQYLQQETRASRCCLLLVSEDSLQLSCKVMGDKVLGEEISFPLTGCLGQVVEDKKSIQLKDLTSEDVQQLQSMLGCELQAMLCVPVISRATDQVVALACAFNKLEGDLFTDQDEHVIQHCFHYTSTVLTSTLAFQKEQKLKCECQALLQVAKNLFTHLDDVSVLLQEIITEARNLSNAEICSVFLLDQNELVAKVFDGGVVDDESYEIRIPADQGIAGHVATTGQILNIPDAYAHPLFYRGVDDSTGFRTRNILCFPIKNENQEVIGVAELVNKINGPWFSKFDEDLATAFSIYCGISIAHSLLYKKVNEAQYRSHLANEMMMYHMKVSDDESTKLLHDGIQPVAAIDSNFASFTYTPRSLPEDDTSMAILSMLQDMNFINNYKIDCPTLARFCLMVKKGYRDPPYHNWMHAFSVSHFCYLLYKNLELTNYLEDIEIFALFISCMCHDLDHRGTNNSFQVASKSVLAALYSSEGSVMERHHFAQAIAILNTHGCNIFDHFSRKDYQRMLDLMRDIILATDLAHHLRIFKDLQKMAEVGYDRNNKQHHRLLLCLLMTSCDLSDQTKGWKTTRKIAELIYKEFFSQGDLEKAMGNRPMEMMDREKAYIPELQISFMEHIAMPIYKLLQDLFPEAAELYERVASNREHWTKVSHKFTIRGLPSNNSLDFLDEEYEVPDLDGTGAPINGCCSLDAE

Ki (Rhesus PDE2A3) [nM]	Ki (human PDE2A1) [nM]	SMILES
1	0.55	CN(C)c1nc2c(c(CO)nn2C(c2ccc(OC(F)F)cc2)C2CC2)c(=O)[nH]1 (single isomer, unassigned) [Example 129, (S)- or (R)-(Cyclopropyl(4-(difluoromethoxy)phenyl)methyl)-6-(dimethylamino)-3-(hydroxymethyl)-1H-pyrazolo[3,4-d]pyrimidin-4(5H)-one]
0.12	0.071	CCC(c1ccc(C(F)(F)F)cc1F)n1nc(CO)c2c(=O)[nH]c(N(C)C)nc21 (single isomer, unassigned) [Example 130, (R)- or (S)-6-(Dimethylamino)-1-(1-(2-fluoro-4-(trifluoromethyl)phenyl)propyl)-3-(hydroxymethyl)-1H-pyrazolo[3,4-d]pyrimidin-4(5H)-one]
0.059	0.04	CC(C)C(c1ccc(C(F)(F)F)cc1F)n1nc(CO)c2c(=O)[nH]c(N(C)C)nc21 (single isomer, unassigned) [Example 132, (R)- or (S)-6-(Dimethylamino)-1-(1-(2-fluoro-4-(trifluoromethyl)phenyl)-2-methylpropyl)-3-(hydroxymethyl)-1H-pyrazolo[3,4-d]pyrimidin-4(5H)-one]
0.6	0.45	CC(C)C(c1ccc(C(F)(F)F)cc1F)n1nc(CO)c2c(=O)[nH]c(N(C)C)nc21 (single isomer, unassigned) [Example 133, (S)- or (R)-6-(Dimethylamino)-1-(1-(2-fluoro-4-(trifluoromethyl)phenyl)-2-methylpropyl)-3-(hydroxymethyl)-1H-pyrazolo[3,4-d]pyrimidin-4(5H)-one]
0.05	0.047	CN(C)c1nc2c(c(CO)nn2C(c2ccc(C(F)(F)F)cc2F)C2CC2)c(=O)[nH]1 (single isomer, unassigned) [Example 134, (R)- or (S)-1-(Cyclopropyl(2-fluoro-4-(trifluoromethyl)phenyl)methyl)-6-(dimethylamino)-3-(hydroxymethyl)-1H-pyrazolo[3,4-d]pyrimidin-4(5H)-one]
0.72	0.6	CN(C)c1nc2c(c(CO)nn2C(c2ccc(C(F)(F)F)cc2F)C2CC2)c(=O)[nH]1 (single isomer, unassigned) [Example 135, (S)- or (R)-1-(Cyclopropyl(2-fluoro-4-(trifluoromethyl)phenyl)methyl)-6-(dimethylamino)-3-(hydroxymethyl)-1H-pyrazolo[3,4-d]pyrimidin-4(5H)-one]
0.14	0.073	CCC(c1ccc(C(C)(F)F)cc1)n1nc(CO)c2c(=O)[nH]c(N(C)C)nc21 (single isomer, unassigned) [Example 137, (S)- or (R)-1-(1-(4-(1,1-Difluoroethyl)phenyl)propyl)-6-(dimethylamino)-3-(hydroxymethyl)-1H-pyrazolo[3,4-d]pyrimidin-4(5H)-one]
0.41	0.19	CC(C)C(c1ccc(C(C)(F)F)cc1)n1nc(CO)c2c(=O)[nH]c(N(C)C)nc21 (single isomer, unassigned) [Example 138, (R)- or (S)-1-(1-(4-(1,1-Difluoroethyl)phenyl)-2-methylpropyl)-6-(dimethylamino)-3-(hydroxymethyl)-1H-pyrazolo[3,4-d]pyrimidin-4(5H)-one]
0.04	0.064	CC(C)C(c1ccc(C(C)(F)F)cc1)n1nc(CO)c2c(=O)[nH]c(N(C)C)nc21 (single isomer, unassigned) [Example 139, (S)- or (R)-1-(1-(4-(1,1-Difluoroethyl)phenyl)-2-methylpropyl)-6-(dimethylamino)-3-(hydroxymethyl)-1H-pyrazolo[3,4-d]pyrimidin-4(5H)-one]
0.097	0.07	CN(C)c1nc2c(c(CO)nn2C(c2ccc(C(C)(F)F)cc2)C2CC2)c(=O)[nH]1 (single isomer, unassigned) [Example 140, (R)- or (S)-1-(Cyclopropyl(4-(1,1-difluoroethyl)phenyl)methyl)-6-(dimethylamino)-3-(hydroxymethyl)-1H-pyrazolo[3,4-d]pyrimidin-4(5H)-one]

The remaining lines, values behind:

SMILES	Ki (Rhesus PDE2A3) [nM]	Ki (human PDE2A1) [nM]
CCC(c1ccc(C(C)(F)F)cc1F)n1nc(CO)c2c(=O)[nH]c(N(C)C)nc21 (single isomer, unassigned) [Example 111, (S)- or (R)-1-(1-(4-(1,1-Difluoroethyl)-2-fluorophenyl)propyl)-6-(dimethylamino)-3-(hydroxymethyl)-1H-pyrazolo[3,4-d]pyrimidin-4(5H)-one]	0.14	0.12
CCC(c1ccc(C(C)(F)F)c(F)c1)n1nc(CO)c2c(=O)[nH]c(N(C)C)nc21 (single isomer, unassigned) [Example 112, (R)- or (S)-1-(1-(4-(1,1-Difluoroethyl)-3-fluorophenyl)propyl)-6-(dimethylamino)-3-(hydroxymethyl)-1H-pyrazolo[3,4-d]pyrimidin-4(5H)-one]	1.1	0.84
CCC(c1ccc(C(C)(F)F)c(F)c1)n1nc(CO)c2c(=O)[nH]c(N(C)C)nc21 (single isomer, unassigned) [Example 113]	0.055	0.057
CC(C)C(c1ccc(C(F)F)c(F)c1)n1nc(CO)c2c(=O)[nH]c(N(C)C)nc21 (single isomer, unassigned) [Example 114]	0.71	0.79
CC(C)C(c1ccc(C(C)(F)F)c(F)c1)n1nc(CO)c2c(=O)[nH]c(N(C)C)nc21 (single isomer, unassigned) [Example 116, (R)- or (S)-1-(1-(4-(1,1-Difluoroethyl)-3-fluorophenyl)-2-methylpropyl)-6-(dimethylamino)-3-(hydroxymethyl)-1H-pyrazolo[3,4-d]pyrimidin-4(5H)-one]	0.16	0.13
CC(C)C(c1ccc(C(C)(F)F)c(F)c1)n1nc(CO)c2c(=O)[nH]c(N(C)C)nc21 (single isomer, unassigned) [Example 117, (R)- or (S)-1-(1-(4-(1,1-Difluoroethyl)-3-fluorophenyl)-2-methylpropyl)-6-(dimethylamino)-3-(hydroxymethyl)-1H-pyrazolo[3,4-d]pyrimidin-4(5H)-one]	0.025	0.017
CC(C)C(c1ccc(C(C)(F)F)cc1F)n1nc(CO)c2c(=O)[nH]c(N(C)C)nc21 (single isomer, unassigned) [Example 118, (R)- or (S)-1-(1-(4-(1,1-Difluoroethyl)-2-fluorophenyl)-2-methylpropyl)-6-(dimethylamino)-3-(hydroxymethyl)-1H-pyrazolo[3,4-d]pyrimidin-4(5H)-one]	0.44	0.42
CC(C)C(c1ccc(C(C)(F)F)cc1F)n1nc(CO)c2c(=O)[nH]c(N(C)C)nc21 (single isomer, unassigned) [Example 119, (S)- or (R)-(1-(4-(1,1-Difluoroethyl)-2-fluorophenyl)-2-methylpropyl)-6-(dimethylamino)-3-(hydroxymethyl)-1H-pyrazolo[3,4-d]pyrimidin-4(5H)-one]	0.036	0.024
CC(C)C(c1ccc(OC(F)F)cc1)n1nc(CO)c2c(=O)[nH]c(N(C)C)nc21 (single isomer, unassigned) [Example 120]	0.28	0.21
CC(C)C(c1ccc(OC(F)F)cc1)n1nc(CO)c2c(=O)[nH]c(N(C)C)nc21 (single isomer, unassigned) [Example 121]	0.31	0.34
CN(C)c1nc2c(c(CO)nn2C(c2ccc(OC(F)F)c(F)c2)C2CC2)c(=O)[nH]1 (single isomer, unassigned) [Example 122, (R)- or (S)-1-(Cyclopropyl(4-(difluoromethoxy)-3-fluorophenyl)methyl)-6-(dimethylamino)-3-(hydroxymethyl)-1H-pyrazolo[3,4-d]pyrimidin-4(5H)-one]	0.37	0.3
CN(C)c1nc2c(c(CO)nn2C(c2ccc(OC(F)F)c(F)c2)C2CC2)c(=O)[nH]1 (single isomer, unassigned) [Example 123, (S)- or (R)-1-(Cyclopropyl(4-(difluoromethoxy)-3-fluorophenyl)methyl)-6-(dimethylamino)-3-(hydroxymethyl)-1H-pyrazolo[3,4-d]pyrimidin-4(5H)-one]	0.61	0.6
CCC(c1ccc(OC(F)F)cc1)n1nc(CO)c2c(=O)[nH]c(N(C)C)nc21 (single isomer, unassigned) [Example 124, (R)- or (S)-1-(1-(4-(Difluoromethoxy)phenyl)propyl)-6-(dimethylamino)-3-(hydroxymethyl)-1H-pyrazolo[3,4-d]pyrimidin-4(5H)-one]	0.7	0.73
CCC(c1ccc(OC(F)F)c(F)c1)n1nc(CO)c2c(=O)[nH]c(N(C)C)nc21 (single isomer, unassigned) [Example 126, (R)- or (S)-1-(1-(4-(Difluoromethoxy)-3-fluorophenyl)propyl)-6-(dimethylamino)-3-(hydroxymethyl)-1H-pyrazolo[3,4-d]pyrimidin-4(5H)-one]	0.45	0.3
CCC(c1ccc(OC(F)F)c(F)c1)n1nc(CO)c2c(=O)[nH]c(N(C)C)nc21 (single isomer, unassigned) [Example 127, (S)- or (R)-1-(1-(4-(Difluoromethoxy)-3-fluorophenyl)propyl)-6-(dimethylamino)-3-(hydroxymethyl)-1H-pyrazolo[3,4-d]pyrimidin-4(5H)-one]	1.4	0.81
CN(C)c1nc2c(c(CO)nn2C(c2ccc(OC(F)F)cc2)C2CC2)c(=O)[nH]1 (single isomer, unassigned) [Example 128, (R)- or (S)-1-(Cyclopropyl(4-(difluoromethoxy)phenyl)methyl)-6-(dimethylamino)-3-(hydroxymethyl)-1H-pyrazolo[3,4-d]pyrimidin-4(5H)-one]	0.55	0.5

— patent US10174037B2, “Dihydropyrazolopyrimidinone compounds as PDE2 inhibitors” (Merck Sharp & Dohme Corp., priority 2015, dated 2019)
